5 compounds from patent publication US20090075272A1, “Method to Identify CD40-Sensitive Cells Using Gene Expression” (priority 2007, published 2009) can be followed below.

The subject of experiment [1] is Su-DHL4 cells. Kind of experiment: Inhibition of CD40-mediated apoptosis by kinase inhibitors (viable cell count). The experiment is classed as cell-based, human. Particulars: 96 hours CD40 stimulation, U0126 10 μM, PD98059 50 μM, SB203580 10 μM added 30 minutes prior. How it is done:
(§1) FIG. 10 is a bar graph showing the effect of ERK inhibition on CD40-mediated apoptosis. Cells were subjected to CD40 stimulation for 96 hours in the presence of the MEK1/2 inhibitors U0126 (10 μM) or PD98059 (50 μM), or the p38 inhibitor SB203580 (10 μM). Cell viability was quantitated by staining nonpermeabilized cells with propidium iodide, and counting the number of unstained (live) cells per unit volume using a Becton-Dickinson FACScan flow cytometer set to count for 30 seconds. The number of viable cells in anti-CD40-treated samples was expressed as a percentage of the number of viable cells incubated in secondary antibody only. Results from three experiments of four replicates each are shown. Error bars represent standard deviations. […] Constitutive ERK phosphorylation is correlated with CD40-mediated cell death.
(§2) Cells were resuspended at 1×10^5 cells/mL in RPMI 1640 medium supplemented as described above. Anti-CD40 antibody G28.5 and secondary crosslinking antibody HB58 were added to a final concentration of 10 μg/mL each, and the cells were incubated at 37° C. At 24 hour intervals aliquots of cells were harvested by centrifugation, washed once in phosphate buffered saline, and resuspended in FACS buffer. Non-permeabilized cells were stained by addition of 1 μg/mL propidium iodide, and the density of viable cells was determined using a FACScan flow cytometer and CellQuest software (Becton Dickinson, Mississauga, ON, Canada) set to count for a fixed 30-second time interval. To determine the fraction of cells that had undergone apoptosis, total intracellular DNA content was measured by propidium iodide staining of ethanol-permeabilized cells as previously described (16). Expression of CD40 on the cell surface was confirmed by staining non-permeabilized cells with a phycoerythrin-linked anti-CD40 antibody (clone 5C3, Becton-Dickinson) as per the manufacturer's directions, followed by flow cytometry.

Experiment [2] deals with OCI-Ly7 cells. The experiment is described as above. The experiment is classed as cell-based, human. Conditions: 96 hours CD40 stimulation, U0126 10 μM, PD98059 50 μM, SB203580 10 μM added 30 minutes prior. How it is done: as §1, §2
For experiment [3], the system named is Su-DHL4 cells. In words: Growth inhibition by kinase inhibitors (MTT assay). The experiment is classed as cell-based, human. Conditions: 96 hours; inhibitor 10^−4 to 10^−8 M. The text has this:
(§3) Error bars indicate standard deviations.

The test system of experiment [4] is OCI-Ly7 cells. In words: Growth inhibition by kinase inhibitors (MTT assay). The experiment is classed as cell-based, human. Conditions: 96 hours; inhibitor 10^−4 to 10^−8 M.
Source text: as §3
Background: Tetrazolium dyes change colour on reduction, which living cells bring about.

Experiment [5] relates to CD40-sensitive and CD40-resistant DLCBL lines (OCI-Ly1, OCI-Ly7, OCI-Ly8, Su-DHL4). Conditions: 96 hours; inhibitor 10^−4 to 10^−8 M.
Procedure: Sensitivity of the cell lines to inhibition of LCK and ERK activity was tested by addition of the src family kinase inhibitor PP1 or the MEK1/2 inhibitor U0126. Cells were incubated for 96 hours in inhibitor concentrations ranging from 10^−4 to 10^−8 M, and viability was assessed by MTT [3-(4,5-dimethylthiazol-2-yl)-2,5-diphenyltetrazolium bromide] assay. Viability is expressed as a percentage of the absorbance at 570 nm as compared to untreated samples. Results of two experiments with quadruplicate samples each were combined. Error bars indicate standard deviations.
The src family kinase inhibitor PP1 and the MEK inhibitor U0126 were purchased from Biomol (Plymouth Meeting, Pa., USA), and from Cell Signaling Technology (Beverly, Mass., USA) respectively. Kinase inhibition assays were performed using cells seeded at a density of 5×10^4 per mL in 96-well plates, to which kinase inhibitors were added to final concentrations of 10^−4 to 10^−8 M. The treated cells were incubated at 37° C. for 96 hours and cell viability was quantitated by MTT assay as previously described (17).
Experiment [6] deals with phosphorylated ERK in Su-DHL4 cells. Conditions: 10 μM, 48 hours.
Procedure: Cells were permeabilized in Cytofix/Cytoperm (Becton-Dickinson) for 20 minutes, and stained with anti-phospho-ERK antibody (Cell Signaling Technology #9101) and FITC-conjugated anti-rabbit secondary antibody (Cedarlane Laboratories, Hornby, ON, CA) following the manufacturers' instructions. The stained cells were analyzed by flow cytometry with a FACScan flow cytometer and CellQuest software.
This hypothesis was tested using pharmacologic inhibitors of MEK. Su-DHL4 cells were incubated in the presence of 10 μM U0126 for 48 hours, permeabilized and stained with an anti-phospho-ERK antibody.
Experiment [7] has as its system Su-DHL4 cells. In words: Cell death after treatment with calcium ionophore. The experiment is classed as cell-based, human.

“Also recorded” adds a separate entry of the source.

For `COc1cccc(-c2cc(=O)c3ccccc3o2)c1N` [PD98059], the “CD40-mediated cell death (viable cells in anti-CD40-treated samples vs secondary antibody only)” value in experiment [1] was “prevented CD40-mediated reduction in viability”; in experiment [1] (listed as PD98058), “reduced CD40-mediated cell death”; in experiment [2] it was “prevented CD40-mediated reduction in viability”; in experiment [2] (listed as PD98058), “reduced CD40-mediated cell death”.
In the case of `Cc1ccc(-c2nn(C(C)(C)C)c3ncnc(N)c23)cc1` [PP1], the “growth (viability by MTT assay)” value in experiment [3] was “more effective at reducing proliferation; also recorded: inhibited by PP1 more efficiently than growth of CD40-resistant OCI-Ly1 and OCI-Ly8 cells”; in experiment [4], “more effective at reducing proliferation; also recorded: inhibited by PP1 more efficiently than growth of CD40-resistant OCI-Ly1 and OCI-Ly8 cells”.
For the compound `C[S+]([O-])c1ccc(-c2nc(-c3ccncc3)c(-c3ccc(F)cc3)[nH]2)cc1` (stereo not shown) [SB203580], the “CD40-mediated cell death (viable cells in anti-CD40-treated samples vs secondary antibody only)” value in experiment [1] and in experiment [2] was “reduced by CD40 ligation” throughout.
For `N#CC(=C(/N)Sc1ccccc1N)/C(C#N)=C(\N)Sc1ccccc1N` [U0126], in experiment [5], the “differential effects on growth of CD40-sensitive and CD40-resistant DLCBL lines” value is on record as “did not show differential effects”. Moreover, the “phosphorylation of ERK” value in experiment [6] is given as “reduced”. The “CD40-mediated cell death (viable cells in anti-CD40-treated samples vs secondary antibody only)” value in experiment [1] and in experiment [2] was “prevented CD40-mediated reduction in viability; also recorded: reduced CD40-mediated cell death” each time.
Regarding `C[C@H](CCC(=O)O)C[C@H](C)C[C@H](C)C(=O)/C=C(\O)[C@H](C)C[C@H](C)C/C=C/[C@@H](C)[C@@H](O)[C@@H](C)[C@@H](O)C[C@@H]1CC[C@@](C)([C@H]2CC[C@@](C)([C@@H](C)O)O2)O1` [ionomycin], in experiment [7], the cell death entry was “induced cell death”.
